# Measured values taken from PubChem BioAssay (NCI).
#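 Cultured in 96-well plates, cells were exposed to test compound for 48 hours across five concentrations. GI50 is the concentration that inhibits growth by half. TGI marks complete inhibition of growth.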
# How the values were obtained:
# Test in all cases: NCI anticancer screen, dose series, 48 h
# [1] = test system: 786-0 renal
# [2] = test system: A498 renal
# [3] = test system: A549 NSCLC
# [4] = test system: ACHN renal
# [5] = test system: BT-549 breast
# [6] = test system: CAKI-1 renal
# [7] = test system: CCRF-CEM leukemia
# [8] = test system: COLO 205 colon
# [9] = test system: DU-145 prostate
# [10] = test system: EKVX NSCLC
# [11] = test system: HCC-2998 colon
# [12] = test system: HCT-116 colon
# [13] = test system: HCT-15 colon
# [14] = test system: HOP-62 NSCLC
# [15] = test system: HOP-92 NSCLC
# [16] = test system: HS 578T breast
# [17] = test system: HT29 colon
# [18] = test system: K-562 leukemia
# [19] = test system: KM12 colon
# [20] = test system: LOX IMVI melanoma
# [21] = test system: MALME-3M melanoma
# [22] = test system: MCF7 breast
# [23] = test system: MDA-MB-231 breast
# [24] = test system: MDA-MB-435
# [25] = test system: MOLT-4 leukemia
# [26] = test system: NCI-H226 lung
# [27] = test system: NCI-H23 lung
# [28] = test system: NCI-H460 lung
# [29] = test system: NCI/ADR-RES ovarian
# [30] = test system: OVCAR-3 ovarian
# [31] = test system: OVCAR-4 ovarian
# [32] = test system: OVCAR-5 ovarian
# [33] = test system: OVCAR-8 ovarian
# [34] = test system: PC-3 prostate
# [35] = test system: RPMI-8226 leukemia
# [36] = test system: RXF 393 renal
# [37] = test system: SF-268 CNS
# [38] = test system: SF-295 CNS
# [39] = test system: SF-539 CNS
# [40] = test system: SK-MEL-2 melanoma
# [41] = test system: SK-MEL-28 melanoma
# [42] = test system: SK-MEL-5 melanoma
# [43] = test system: SK-OV-3 ovarian
# [44] = test system: SN12C renal
# [45] = test system: SNB-19 CNS
# [46] = test system: SNB-75 CNS
# [47] = test system: SR leukemia
# [48] = test system: SW-620 colon
# [49] = test system: T-47D breast
# [50] = test system: TK-10 renal
# [51] = test system: U251 CNS
# [52] = test system: UACC-257 melanoma
# [53] = test system: UACC-62 melanoma
# [54] = test system: UO-31 renal
compound,measurement,setting,value
O=C(COc1ccc(/C=C2\Oc3ccccc3C2=O)cc1)Nc1nccs1,GI50,[1],54.9 µM
same,TGI,[1],> 100 µM
same,GI50,[2],54.1 µM
same,TGI,[2],> 100 µM
same,GI50,[3],63.9 µM
same,TGI,[3],> 100 µM
same,GI50,[4],> 100 µM
same,TGI,[4],> 100 µM
same,GI50,[5],18.5 µM
same,TGI,[5],96.9 µM
same,GI50,[6],12.1 µM
same,TGI,[6],> 100 µM
same,GI50,[7],1.52 µM
same,TGI,[7],3.27 µM
same,GI50,[8],> 100 µM
same,TGI,[8],> 100 µM
same,GI50,[9],71 µM
same,TGI,[9],> 100 µM
same,GI50,[10],51.5 µM
same,TGI,[10],> 100 µM
same,GI50,[11],> 100 µM
same,TGI,[11],> 100 µM
same,GI50,[12],39.1 µM
same,TGI,[12],> 100 µM
same,GI50,[13],> 100 µM
same,TGI,[13],> 100 µM
same,GI50,[14],85.3 µM
same,TGI,[14],> 100 µM
same,GI50,[15],1.53 µM
same,TGI,[15],4.85 µM
same,GI50,[16],20.7 µM
same,TGI,[16],80.5 µM
same,GI50,[17],> 100 µM
same,TGI,[17],> 100 µM
same,GI50,[18],60.1 µM
same,TGI,[18],> 100 µM
same,GI50,[19],8.08 µM
same,TGI,[19],> 100 µM
same,GI50,[20],0.371 µM
same,TGI,[20],> 100 µM
same,GI50,[21],> 100 µM
same,TGI,[21],> 100 µM
same,GI50,[22],43.2 µM
same,TGI,[22],> 100 µM
same,GI50,[23],33.4 µM
same,TGI,[23],> 100 µM
same,GI50,[24],8.47 µM
same,TGI,[24],> 100 µM
same,GI50,[25],3.31 µM
same,TGI,[25],19.1 µM
same,GI50,[26],60.3 µM
same,TGI,[26],> 100 µM
same,GI50,[27],49.8 µM
same,TGI,[27],> 100 µM
same,GI50,[28],88 µM
same,TGI,[28],> 100 µM
same,GI50,[29],64.9 µM
same,TGI,[29],> 100 µM
same,GI50,[30],36.1 µM
same,TGI,[30],> 100 µM
same,GI50,[31],70.4 µM
same,TGI,[31],> 100 µM
same,GI50,[32],> 100 µM
same,TGI,[32],> 100 µM
same,GI50,[33],> 100 µM
same,TGI,[33],> 100 µM
same,GI50,[34],38.1 µM
same,TGI,[34],> 100 µM
same,GI50,[35],4.12 µM
same,TGI,[35],> 100 µM
same,GI50,[36],0.354 µM
same,TGI,[36],15.1 µM
same,GI50,[37],36.8 µM
same,TGI,[37],> 100 µM
same,GI50,[38],41.4 µM
same,TGI,[38],> 100 µM
same,GI50,[39],32.5 µM
same,TGI,[39],> 100 µM
same,GI50,[40],39 µM
same,TGI,[40],> 100 µM
same,GI50,[41],> 100 µM
same,TGI,[41],> 100 µM
same,GI50,[42],64.4 µM
same,TGI,[42],> 100 µM
same,GI50,[43],> 100 µM
same,TGI,[43],> 100 µM
same,GI50,[44],76.9 µM
same,TGI,[44],> 100 µM
same,GI50,[45],> 100 µM
same,TGI,[45],> 100 µM
same,GI50,[46],17.4 µM
same,TGI,[46],72.6 µM
same,GI50,[47],20.8 µM
same,TGI,[47],61 µM
same,GI50,[48],> 100 µM
same,TGI,[48],> 100 µM
same,GI50,[49],75.4 µM
same,TGI,[49],> 100 µM
same,GI50,[50],85.1 µM
same,TGI,[50],> 100 µM
same,GI50,[51],40.6 µM
same,TGI,[51],> 100 µM
same,GI50,[52],39.3 µM
same,TGI,[52],> 100 µM
same,GI50,[53],> 100 µM
same,TGI,[53],> 100 µM
same,GI50,[54],> 100 µM
same,TGI,[54],> 100 µM
